# Data taken from US20240190880A1 (THE REGENTS OF THE UNIVERSITY OF MICHIGAN, priority 2021, published 2024).
# Molecular target: T1, ER (Homo sapiens, UniProt P03372)
# T1 construct: host or cells: T47D and MCF7 human breast cancer cells
# T1 sequence (P03372 1-595): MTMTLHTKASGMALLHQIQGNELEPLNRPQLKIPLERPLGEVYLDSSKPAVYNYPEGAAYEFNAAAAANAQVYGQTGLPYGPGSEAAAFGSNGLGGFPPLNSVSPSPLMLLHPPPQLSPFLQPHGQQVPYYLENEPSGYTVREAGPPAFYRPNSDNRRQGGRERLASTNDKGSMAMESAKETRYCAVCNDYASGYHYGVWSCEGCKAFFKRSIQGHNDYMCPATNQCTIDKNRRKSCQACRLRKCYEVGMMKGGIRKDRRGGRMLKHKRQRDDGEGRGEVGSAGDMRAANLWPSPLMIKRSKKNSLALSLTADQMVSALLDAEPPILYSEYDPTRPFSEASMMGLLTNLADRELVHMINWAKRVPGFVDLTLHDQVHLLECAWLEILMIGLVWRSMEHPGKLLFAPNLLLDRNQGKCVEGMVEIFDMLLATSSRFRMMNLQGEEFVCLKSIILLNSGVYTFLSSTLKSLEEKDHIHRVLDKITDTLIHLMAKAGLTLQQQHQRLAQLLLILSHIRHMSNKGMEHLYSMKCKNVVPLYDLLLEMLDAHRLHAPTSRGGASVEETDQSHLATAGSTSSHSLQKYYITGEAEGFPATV
# Test: ER degradation activity, in-cell western blot analysis in T47D cells
# Assay type: cell-based
# Settings: 16 hours, Table A does not say which cell line (T47D or MCF7), read-out: Potency (DC50)
# Procedure, shortened: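 T47D cells cultured in DMEM with 10% FBS, treated with compounds (final 0.5% DMSO) for 16 h. ER level measured by in-cell western with anti-rabbit-680/anti-mouse-800 near-infrared detection. Relative ER percentage calculated against untreated and DMSO-treated wells set as 100%.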
row,DC50,SMILES
1,10 to 100 nM,"C[C@@H]1Cc2c([nH]c3ccccc23)[C@@H](c2c(F)cc(N3CCC4(CCN(C(=O)CN5Cc6cc7c(cc6C5)C(=O)N(C5CCC(=O)NC5=O)C7)C4)C3)cc2F)N1CC(F)F (stereo partly drawn) [E 68, 3-(6-(2-(7-(4-((1R,3R)-2-(2,2-difluoroethyl)-3-methyl-2,3,4,9-tetrahydro-1H-pyrido[3,4-b]indol-1-yl)-3,5-difluorophenyl)-2,7-diazaspiro[4.4]nonan-2-yl)-2-oxoethyl)-1-oxo-3,5,6,7-tetrahydropyrrolo[3,4-f]isoindol-2(1H)-yl)piperidine-2,6-dione]"
2,10 to 100 nM,"C[C@@H]1Cc2c([nH]c3ccccc23)[C@@H](c2c(F)cc(N3CCC(N4CC(C(=O)N5Cc6cc7c(cc6C5)C(=O)N(C5CCC(=O)NC5=O)C7)C4)CC3)cc2F)N1CC(F)F (stereo partly drawn) [E 120, 3-(6-(1-(1-(4-((1R,3R)-2-(2,2-difluoroethyl)-3-methyl-2,3,4,9-tetrahydro-1H-pyrido[3,4-b]indol-1-yl)-3,5-difluorophenyl)piperidin-4-yl)azetidine-3-carbonyl)-1-oxo-3,5,6,7-tetrahydropyrrolo[3,4-f]isoindol-2(1H)-yl)piperidine-2,6-dione]"
3,> 100 nM,"C[C@@H]1Cc2c([nH]c3ccccc23)[C@H](c2c(F)cc(C(=O)N3CCC4(CCC(CN5Cc6cc7c(cc6C5)C(=O)N(C5CCC(=O)NC5=O)C7=O)CC4)CC3)cc2F)N1CC(F)F (stereo partly drawn) [E 379, 6-((3-(4-((1S,3R)-2-(2,2-difluoroethyl)-3-methyl-2,3,4,9-tetrahydro-1H-pyrido[3,4-b]indol-1-yl)-3,5-difluorobenzoyl)-3-azaspiro[5.5]undecan-9-yl)methyl)-2-(2,6-dioxopiperidin-3-yl)-6,7-dihydropyrrolo[3,4-f]isoindole-1,3(2H,5H)-dione]"
4,10 to 100 nM,"C[C@@H]1Cc2c([nH]c3ccccc23)[C@@H](c2c(F)cc(N3CCC4(CCN(C(=O)CN5Cc6cc7c(cc6C5)C(=O)N(C5CCC(=O)NC5=O)C7=O)C4)C3)cc2F)N1CC(F)F (stereo partly drawn) [E 79, 6-(2-(7-(4-((1R,3R)-2-(2,2-difluoroethyl)-3-methyl-2,3,4,9-tetrahydro-1H-pyrido[3,4-b]indol-1-yl)-3,5-difluorophenyl)-2,7-diazaspiro[4.4]nonan-2-yl)-2-oxoethyl)-2-(2,6-dioxopiperidin-3-yl)-6,7-dihydropyrrolo[3,4-f]isoindole-1,3(2H,5H)-dione]"
5,> 100 nM,"CN(C1CCC(N2Cc3cc4c(cc3C2)C(=O)N(C2CCC(=O)NC2=O)C4=O)CC1)C1CCN(c2ccc([C@@H]3c4ccc(O)cc4CC[C@@H]3c3ccccc3)cc2)CC1 (stereo partly drawn) [E 324, 2-(2,6-dioxopiperidin-3-yl)-6-(4-((1-(4-((1R,2S)-6-hydroxy-2-phenyl-1,2,3,4-tetrahydronaphthalen-1-yl)phenyl)piperidin-4-yl)(methyl)amino)cyclohexyl)-6,7-dihydropyrrolo[3,4-f]isoindole-1,3(2H,5H)-dione]"
6,> 100 nM,C[C@@H]1Cc2c([nH]c3ccccc23)[C@@H](c2c(F)cc(N3CC4(CCCN(C(=O)CN5Cc6cc7c(cc6C5)C(=O)N(C5CCC(=O)NC5=O)C7)C4)C3)cc2F)N1CC(F)F (some centres unmarked) [E 69]
7,> 100 nM,"C[C@@H]1Cc2cc(O)ccc2[C@@H](c2c(F)cc(N3CCN(C(=O)[C@H]4CC[C@H](N5Cc6cc7c(cc6C5)C(=O)N(C5CCC(=O)NC5=O)C7=O)CC4)CC3)cc2F)N1CC(F)F (mixture of isomers) [E 353, rac-6-((1S,4r)-4-(4-(4-((1S,3R)-2-(2,2-difluoroethyl)-6-hydroxy-3-methyl-1,2,3,4-tetrahydroisoquinolin-1-yl)-3,5-difluorophenyl)piperazine-1-carbonyl)cyclohexyl)-2-(2,6-dioxopiperidin-3-yl)-6,7-dihydropyrrolo[3,4-f]isoindole-1,3(2H,5H)-dione]"
8,< 10 nM,"C[C@@H]1Cc2c([nH]c3ccccc23)[C@@H](c2c(F)cc(N3CC4(CCN(CC(=O)N5Cc6cc7c(cc6C5)C(=O)N(C5CCC(=O)NC5=O)C7)C4)C3)cc2F)N1CC(F)F (stereo partly drawn) [E 73, 3-(6-(2-(2-(4-((1R,3R)-2-(2,2-difluoroethyl)-3-methyl-2,3,4,9-tetrahydro-1H-pyrido[3,4-b]indol-1-yl)-3,5-difluorophenyl)-2,6-diazaspiro[3.4]octan-6-yl)acetyl)-1-oxo-3,5,6,7-tetrahydropyrrolo[3,4-f]isoindol-2(1H)-yl)piperidine-2,6-dione]"
9,> 100 nM,"C[C@@H]1Cc2cc(O)ccc2[C@@H](c2ccc(N3CCC(C(=O)N4CC(CN5Cc6cc7c(cc6C5)C(=O)N(C5CCC(=O)NC5=O)C7=O)C4)CC3)cn2)N1CC(F)F (stereo partly drawn) [E 351, 6-((1-(1-(6-((1S,3R)-2-(2,2-difluoroethyl)-6-hydroxy-3-methyl-1,2,3,4-tetrahydroisoquinolin-1-yl)pyridin-3-yl)piperidine-4-carbonyl)azetidin-3-yl)methyl)-2-(2,6-dioxopiperidin-3-yl)-6,7-dihydropyrrolo[3,4-f]isoindole-1,3(2H,5H)-dione]"
10,> 100 nM,"O=C1CCC(N2C(=O)c3cc4c(cc3C2=O)CN(CC2CN(CC3CN(c5ccc([C@@H]6c7ccc(O)cc7CC[C@@H]6c6ccc(F)cc6)cc5)C3)C2)C4)C(=O)N1 (stereo partly drawn) [E 278, 2-(2,6-dioxopiperidin-3-yl)-6-((1-((1-(4-((1R,2S)-2-(4-fluorophenyl)-6-hydroxy-1,2,3,4-tetrahydronaphthalen-1-yl)phenyl)azetidin-3-yl)methyl)azetidin-3-yl)methyl)-6,7-dihydropyrrolo[3,4-f]isoindole-1,3(2H,5H)-dione]"
11,10 to 100 nM,"C[C@H]1Cc2c([nH]c3ccccc23)[C@H](c2c(F)cc(N3CC4(CCCN(C(=O)CN5Cc6cc7c(cc6C5)C(=O)N(C5CCC(=O)NC5=O)C7=O)C4)C3)cc2F)N1CC(F)F (stereo in doubt) [E 80, 6-(2-(2-(4-((1S,3S)-2-(2,2-difluoroethyl)-3-methyl-2,3,4,9-tetrahydro-1H-pyrido[3,4-b]indol-1-yl)-3,5-difluorophenyl)-2,6-diazaspiro[3.5]nonan-6-yl)-2-oxoethyl)-2-(2,6-dioxopiperidin-3-yl)-6,7-dihydropyrrolo[3,4-f]isoindole-1,3(2H,5H)-dione]"
12,> 100 nM,"O=C1CCC(N2C(=O)c3cc4c(cc3C2=O)CN(CC(=O)N2CCC3(CC2)CCN(c2ncc([C@@H]5c6ccc(O)cc6CC[C@@H]5c5ccccc5)cn2)CC3)C4)C(=O)N1 (mixture of isomers) [E 298, Rac-2-(2,6-dioxopiperidin-3-yl)-6-(2-(9-(5-((1S,2S)-6-hydroxy-2-phenyl-1,2,3,4-tetrahydronaphthalen-1-yl)pyrimidin-2-yl)-3,9-diazaspiro[5.5]undecan-3-yl)-2-oxoethyl)-6,7-dihydropyrrolo[3,4-f]isoindole-1,3(2H,5H)-dione]"
13,< 10 nM,"C[C@@H]1Cc2c([nH]c3ccccc23)[C@@H](c2c(F)cc(N3CCC(N4CCC(CC(=O)N5Cc6cc7c(cc6C5)C(=O)N(C5CCC(=O)NC5=O)C7=O)CC4)CC3)cc2F)N1CC(F)F (stereo partly drawn) [E 93, 6-(2-(1′-(4-((1R,3R)-2-(2,2-difluoroethyl)-3-methyl-2,3,4,9-tetrahydro-1H-pyrido[3,4-b]indol-1-yl)-3,5-difluorophenyl)-[1,4′-bipiperidin]-4-yl)acetyl)-2-(2,6-dioxopiperidin-3-yl)-6,7-dihydropyrrolo[3,4-f]isoindole-1,3(2H,5H)-dione]"
14,> 100 nM,"O=C1CCC(N2C(=O)c3cc4c(cc3C2=O)CN(C2CCC(C(=O)N3CCN(c5ccc([C@@H]6c7ccc(O)cc7CC[C@@H]6c6ccccc6)cc5)CC3)CC2)C4)C(=O)N1 (stereo partly drawn) [E 291, 2-(2,6-dioxopiperidin-3-yl)-6-(4-(4-(4-((1R,2S)-6-hydroxy-2-phenyl-1,2,3,4-tetrahydronaphthalen-1-yl)phenyl)piperazine-1-carbonyl)cyclohexyl)-6,7-dihydropyrrolo[3,4-f]isoindole-1,3(2H,5H)-dione]"

# Same assay, conditions: compounds 16 hours, Table A does not say whether T47D or MCF7, read-out: Potency (DC50)
row,DC50,SMILES
1,10 to 100 nM,"COc1cc(N2CCC3(CCN(C(=O)CN4Cc5cc6c(cc5C4)C(=O)N(C4CCC(=O)NC4=O)C6=O)CC3)CC2)ccc1[C@@H]1c2[nH]c3ccccc3c2C[C@@H](C)N1CC(C)(C)F (stereo partly drawn) [E 514, 2-(2,6-dioxopiperidin-3-yl)-6-(2-(9-(4-((1R,3R)-2-(2-fluoro-2-methylpropyl)-3-methyl-2,3,4,9-tetrahydro-1H-pyrido[3,4-b]indol-1-yl)-3-methoxyphenyl)-3,9-diazaspiro[5.5]undecan-3-yl)-2-oxoethyl)-6,7-dihydropyrrolo[3,4-f]isoindole-1,3(2H,5H)-dione]"
2,> 100 nM,"C[C@@H]1Cc2c([nH]c3ccccc23)[C@@H](c2cnc(N3CCC4(CC3)CC(CN3Cc5cc6c(cc5C3)C(=O)N([C@H]3CCC(=O)NC3=O)C6=O)C4)nc2)N1CC(F)(F)CO [E 512, 6-((7-(5-((1R,3R)-2-(2,2-difluoro-3-hydroxypropyl)-3-methyl-2,3,4,9-tetrahydro-1H-pyrido[3,4-b]indol-1-yl)pyrimidin-2-yl)-7-azaspiro[3.5]nonan-2-yl)methyl)-2-((S)-2,6-dioxopiperidin-3-yl)-6,7-dihydropyrrolo[3,4-f]isoindole-1,3(2H,5H)-dione]"
3,10 to 100 nM,C[C@@H]1Cc2c(ccc3[nH]ncc23)[C@@H](c2c(F)cc(NC3CN(C(=O)[C@H]4CC[C@@H](N5Cc6cc7c(cc6C5)C(=O)N(C5CCC(=O)NC5=O)C7=O)CC4)C3)cc2F)N1CC(F)F (some centres unmarked) [E 424]
